This is an account of results in patent publication US9744174B2 (DemeRx, Inc., priority 2013, dated 2017).

Entries after “also recorded” stand apart in the source; their conditions may differ.

The conditions of data set [1]: varies with the pH of the urine; cited from earlier work.
A short description of data set [2]: Noribogaine-methadone interaction study: mortality and postdose observations after oral dosing. Conditions: male, Sprague Dawley, rat, in vivo, po, methadone LD50, rats, oral.
The test system of the next data set is male Sprague Dawley rats. The description is as above. Conditions: rats; for Number Dead after Methadone: 10 dosed.
Data set [3] can be described thus: Ascending single-dose pharmacokinetics of noribogaine and noribogaine glucuronide (plasma, urine; LCMSMS). Conditions: for AUC0-216 / AUC0-∞ / Cmax / Tmax / t1/2 / CL/F: mean (SD).
Data set [4] deals with healthy, drug-free male volunteers. The data set is described as follows: Pupillometry (pupillary miosis) after single oral dose. The class given is in vivo, human. Conditions: single oral 3, 10, 30 or 60 mg, up to 216 hours post-dosing. The procedure: Pulse oximetry and capnography data were collected continuously using a GE Carescape B650 monitoring system from 2 hours prior to dosing and until six hours after dosing, and thereafter at 12, 24, 48 and 72 hours post-dosing. […] Pupillary miosis was assessed by pupillometry.

The test system is the same in data set [5]. The data set is described as follows: Cold pressor test (analgesic effect). The class given is in vivo, human. The note with it: single oral 3-60 mg; duration of hand immersion and VAS pain scores vs placebo. As to the method:
Analgesic effect was assessed based on duration of hand immersion in ice water and on visual analog scale (VAS) pain scores upon hand removal from the water bath.
(§1) Safety and tolerability of noribogaine were tested in the group of volunteers from Example 2. […] Safety evaluations included clinical monitoring, recording of adverse events (AEs), safety laboratory tests, vital signs, ECG telemetry from −2 h to 6 h after dosing, and 12-lead electrocardiograms (ECGs) up to 216 hours post-dosing.

The test system is the same in data set [6]. The data set is described as follows: Safety and tolerability: adverse events, vital signs, ECG. It is filed as in vivo, human. The procedure: as §1
Data set [7] has as its system opioid-dependent participants. The data set is described as follows: Efficacy trial: time to resumption of opioid substitution treatment (OST). The class given is in vivo, human. As to the method:
(§2) The efficacy of noribogaine in humans was evaluated in opioid-dependent participants in a randomized, placebo-controlled, double-blind trial. […] See U.S. Provisional Application No. 61/852,485, filed Mar. 15, 2013, which is incorporated herein by reference in its entirety.
(§3) In the first cohort, six patients were orally administered a single dose of 60 mg noribogaine, and three patients received placebo. In the second cohort, five patients were orally administered a single dose of 120 mg noribogaine, and three patients received placebo.

For data set [8], the system named is opioid-dependent participants. The data set is described as follows: QT interval prolongation in the efficacy trial. It is filed as in vivo, human. As to the method:
as §2, §3

A further data set addresses mu receptor. The note with it: Pearl et al., Brain Research, 675:342-344 (1995); read-out: affinity constant (K value) for the mu receptor; cited from earlier work.
The mark [9] stands for this setting: plasma noribogaine glucuronide after single oral 30 mg noribogaine.
Setting [10] is: plasma noribogaine glucuronide after single oral 60 mg noribogaine.
Where [11] appears, read: oral, noribogaine 50 mg/kg then methadone 0 mg/kg (vehicle).
Setting [12] is: oral, noribogaine 150 mg/kg then methadone 0 mg/kg (vehicle).
Where [13] appears, read: plasma noribogaine, single oral 3 mg.
Setting [14] is: plasma noribogaine, single oral 10 mg.
Where [15] appears, read: plasma noribogaine, single oral 30 mg.
The mark [16] stands for this setting: plasma noribogaine, single oral 60 mg.

With `CC=C1N(C)C(C)CC1(c1ccccc1)c1ccccc1` (centres unmarked) [EDDP, 2-ethylidene-1.5-dimethyl-3.3diphenylpyrrolidine], the “Urinary excretion (percentage of a dose)” value in data set [1] is 3-25%.

In the case of `CCC(=O)C(CC(C)N(C)C)(c1ccccc1)c1ccccc1` (centres unmarked) [Methadone, reference compound], in data set [1], the “Urinary excretion (percentage of a dose)” value was 5-50%. The LD50 (in general, the dose at which mortality reaches 50%) came to 68.2 mg/kg in data set [2] (after 0 mg/kg of noribogaine), 29.7 mg/kg in data set [2] (after 50 mg/kg of noribogaine) and 8.86 mg/kg in [2] (after 150 mg/kg of noribogaine). The “Number Dead after Methadone” value was 0 with male Sprague Dawley rats (oral, noribogaine 0 mg/kg then methadone 1 mg/kg (table; b148: 10 mg/kg)); 1 with male Sprague Dawley rats (oral, noribogaine 0 mg/kg then methadone 3 mg/kg (table; b148: 30 mg/kg)); 3 in the data set on male Sprague Dawley rats (oral, noribogaine 0 mg/kg then methadone 5 mg/kg (table; b148: 50 mg/kg)). The “Persistence of slight languid behavior” value in the data set on male Sprague Dawley rats (oral, methadone alone at 10 mg/kg) is 1.75 h. Further, the Postdose observations entry in the data set with male Sprague Dawley rats (oral, methadone alone at 50 mg/kg) was “prostrate, had tremors, shallow respirations”; in the data set on male Sprague Dawley rats (oral, within one hour following methadone alone at 10 and 30 mg/kg), “slight ataxia, salivation, hunched posture, and languid behavior”. The “Persistence of adverse observations following the methadone dose” value in the data set with male Sprague Dawley rats (oral, methadone at doses of 30 and 50 mg/kg) was 3 h.

As to `CC[C@H]1C[C@@H]2C[C@H]3c4[nH]c5ccc(OC6OC(C(=O)O)C(O)C(O)C6O)cc5c4CCN(C2)[C@@H]13` (some centres unmarked) [Noribogaine glucuronide], the “Proportion of noribogaine glucuronide Cmax and AUC relative to noribogaine” value in [3] (both dose groups (30 mg, 60 mg)) is on record as 3-4%. Also, in data set [3] (setting [9]), the AUC0-216 is listed as 25.7 (9.1) ng · hr/ml, the “AUC0-∞” value is recorded as 25.8 (9.3) ng · hr/ml, the Cmax is given as 1.8 (0.6) ng/ml and the Tmax was 3.0 (0.6) hr. Further, the t1/2 in [3] (setting [9]) was 20.6 (4.9) hr. Besides, in data set [3] (setting [10]), the AUC0-216 is reported as 65.0 (21.5) ng · hr/ml, the “AUC0-∞” value is recorded as 67.1 (21.9) ng · hr/ml, the Cmax is 4.1 (1.2) ng/ml and the Tmax is on record as 3.8 (1.2) hr. Besides, in data set [3] (setting [10]), the t1/2 is recorded as 23.1 (3.0) hr. Moreover, in [3] (plasma noribogaine glucuronide, 30 mg and 60 mg dose groups), the “Time of peak concentrations after noribogaine dosing” value fell in the range of 3 to 4 h. Besides, the “Time by which detected in all subjects” value in [3] (plasma noribogaine glucuronide, 30 mg and 60 mg noribogaine dose groups) is at most 0.75 h.

Regarding `CC[C@H]1C[C@H]2C[C@H]3c4[nH]c5ccc(O)cc5c4CCN(C2)[C@@H]13` [Noribogaine], the “Pupillary constriction (pupil diameter)” value in data set [4] is given as “no evidence of pupillary constriction”. Further, the “Analgesic effect in the cold pressor test” value in data set [5] was “no analgesic effect”. In addition, the “Number of adverse events reported” value in data set [6] (3 mg dose group, two subjects) is “five”; in data set [6] (10 mg dose group, single subject) it was “one”; in [6] (30 mg dose group, single subject), “one”. The “Adverse events, Mild” value in [6] (Dose 3 mg) is given as “Dizziness; also recorded: Epistaxis; also recorded: Headache; also recorded: Back pain”; in [6] (Dose 10 mg), “Headache”; in data set [6] (Dose 30 mg), “Headache”. For the same compound, the “Adverse events, Moderate” value in data set [6] (Dose 3 mg) was “Headache”. In data set [6] (one subject dosed with 10 mg, 24 hours post-dosing), the “Single increase in QTcF” value was above 60 ms. For the same compound, the “Oximetry, capnography, respiratory rate” value in data set [6] (single oral 3-60 mg) is “no changes in oximetry or capnography, or changes in respiratory rate”. Besides, the “Vital signs and safety laboratory tests” value in data set [6] (single oral 3-60 mg) is “no changes in vital signs or safety laboratory tests of note”. The compound further returned a QTcF values in data set [6] (single oral 3-60 mg, at any time) of at most 500 ms. Besides, the Therapeutic activity result in data set [7] (60 mg to 180 mg, inverted-U curve) is “therapeutic activity at all concentrations”. For the same compound, in [7] (120 mg presumed treated patients, estimated from FIG. 4 profile), the “Estimated serum noribogaine level at which significant withdrawal symptoms return and OST is resumed” value is 50 to 60 ng/mL. Also, the “Average time to resumption of OST” value in data set [7] (180 mg, 6 presumed (imputed) noribogaine-treated patients) is listed as “approximately 11.4 hours”. For the same compound, the “Time to resumption of OST” value in data set [7] ((putatively) administered 60 mg noribogaine) was 9.6 h. Also, the “Average time to resumption of opioids” value in data set [7] (second cohort, blinded: single oral 120 mg noribogaine (5 patients) or placebo (3)) is listed as “approximately 22 hours”. Besides, in [7] (single oral 60 mg or 120 mg), the “Adverse effects, including hallucinatory effects” value is “No adverse effects”. Moreover, the “Change in the QT interval prolongation” value in data set [8] (180 mg) is on record as “above 30 ms”. Further, the “Mean prolongation of the QT interval” value in data set [8] (first cohort (60 mg noribogaine or placebo)) was “less than 10 ms”; in data set [8] (second cohort (120 mg noribogaine or placebo)) it was “less than 40 ms”. Also, the Ki at mu receptor is 2.66 µM. The “Number Dead after Methadone” value in the data set with male Sprague Dawley rats (setting [11]) is 0; in the data set with male Sprague Dawley rats (setting [12]), 0; in the data set on male Sprague Dawley rats (oral, noribogaine 150 mg/kg then methadone 0 mg/kg (vehicle), listed as noribogaine), “no deaths”. The Postdose observations result is “languid behavior and tremors involving the entire body” in the data set on male Sprague Dawley rats (oral, approximately 5 hours following noribogaine at 50 mg/kg, a few animals); “Salivation, languid behavior, and ataxia” with male Sprague Dawley rats (oral, approximately 5 hours following noribogaine at 150 mg/kg); “slight ataxia, salivation (slight or severe), and hunched posture” in the data set on male Sprague Dawley rats (oral, following noribogaine 50 and 150 mg/kg). In addition, the “Percentage of animals with observations of ataxia and salivation” value in the data set on male Sprague Dawley rats (oral, noribogaine 50 mg/kg) is 30-40%; in the data set on male Sprague Dawley rats (oral, noribogaine 150 mg/kg) it was 60-70%. Further, the “% Dead after Methadone” value in the data set on male Sprague Dawley rats (setting [11]) and with male Sprague Dawley rats (setting [12]) was 0% in each case. Besides, in the data set on male Sprague Dawley rats (oral, noribogaine 50 and 150 mg/kg, before methadone), the “Persistence of observations following dosing” value is “up to 4 hours”. Besides, the “Persistence of adverse observations following dosing” value with male Sprague Dawley rats (oral, noribogaine alone) is 6.5 to 7 h. In addition, in the data set with male Sprague Dawley rats (oral, noribogaine at doses of 0, 50, and 150 mg/kg followed by the interaction article vehicle), the Mortality result is “no mortality”. Besides, the “Effect on mortality associated with oral methadone” value in the data set on male Sprague Dawley rats (oral noribogaine at doses of 50 and 150 mg/kg) was “potentiates the mortality”. Further, the “Dose-proportionality of Cmax and AUC” value in data set [3] (noribogaine, 3-60 mg, linear regression) is listed as “increased linearly with dose”. Besides, in [3] (noribogaine, across dose groups 3-60 mg), the “Time of peak concentrations after oral dosing” value was in the range of 2 to 3 h. Further, the CL/F in data set [3] (noribogaine, single oral 3 mg) is recorded as 41.4 (7.0) L/h; in data set [3] (noribogaine, single oral 10 mg), 42.3 (12.0) L/h; in [3] (noribogaine, single oral 30 mg), 46.9 (16.4) L/h; in data set [3] (noribogaine, single oral 60 mg) it was 34.0 (11.4) L/h. The AUC0-216 in data set [3] (setting [13]) was 72.2 (13.2) ng · hr/ml; in data set [3] (setting [14]), 251.4 (78.5) ng · hr/ml; in [3] (setting [15]), 677.6 (221.1) ng · hr/ml; in data set [3] (setting [16]) it was 1935.4 (725.4) ng · hr/ml. Further, the Cmax in data set [3] (setting [13]) is on record as 5.2 (1.4) ng/ml; in data set [3] (setting [14]), 14.5 (2.1) ng/ml. The Tmax in data set [3] (setting [13]) is 1.9 (0.6) hr; in data set [3] (setting [14]) it was 2.9 (1.8) hr; in [3] (setting [15]), 1.8 (0.6) hr; in data set [3] (setting [16]) it was 2.4 (0.6) hr. In addition, the t1/2 in data set [3] (setting [13]) was 40.9 (8.7) hr; in [3] (setting [14]), 49.2 (11.5) hr; in data set [3] (setting [15]) it was 27.6 (7.0))^ hr; in [3] (setting [16]), 29.1 (9.3) hr.

Take `CC[C@H]1CC2C[C@H]3c4[nH]c5ccc(OC)cc5c4CCN(C2)C13` [ibogaine, reference compound]: the Ki at mu receptor was 11 µM.
